Experimental data published in patent US10881698B2, “Diagnosis and treatment for respiratory tract diseases” (THE TRUSTEES OF THE UNIVERSITY OF PENNSYLVANIA, priority 2012, dated 2021).
Numbering of substitutions follows the chain as printed.

Assays:
T2R38 [1] = biological target: T1, T2R38 (Homo sapiens, UniProt P59533, A49P/I296V); assay: DAF-FM imaging of NO production in human sinonasal ALI cultures; type: cell-based
T1 construct: T2R38 is expressed in human upper airway epithelium; endogenous in cells; host or cells: primary human sinonasal epithelial cells, air-liquid interface cultures from surgical patients
T1 sequence (P59533 1-333 A49P/I296V): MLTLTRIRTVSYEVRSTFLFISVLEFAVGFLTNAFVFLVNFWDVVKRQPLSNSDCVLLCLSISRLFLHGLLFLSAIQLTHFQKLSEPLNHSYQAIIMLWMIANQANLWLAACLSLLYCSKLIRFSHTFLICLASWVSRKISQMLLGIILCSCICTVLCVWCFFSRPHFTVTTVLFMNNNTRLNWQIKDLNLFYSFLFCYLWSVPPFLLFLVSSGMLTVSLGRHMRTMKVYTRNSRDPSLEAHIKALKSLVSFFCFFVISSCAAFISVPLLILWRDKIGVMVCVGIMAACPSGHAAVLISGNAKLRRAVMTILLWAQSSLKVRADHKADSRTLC

T2R38 [2] = assay: as above; type: cell-based
sinonasal ALI cultures = type: cell-based, human
Pseudomonas aeruginosa [3] = test system: Pseudomonas aeruginosa
[4] = test system: sinonasal epithelial cells; assay: DAF-FM NO production with quinine in PAV/AVI heterozygote sinonasal epithelial cells; type: cell-based, human
Pseudomonas aeruginosa [5] = assay: Kill assay with ASL from stimulated sinonasal ALI cultures (CFU plating); type: cell-based; conditions: for Growth of bacteria mixed with ASL from stimulated cultures: 10 mM denatonium, 300 μM absinthin, Pseudomonas aeruginosa; for Effect of solutions alone on growth: no ASL, Pseudomonas
[6] = test system: Methicillin-resistant Staphylococcus aureus (MRSA); assay: as above; type: cell-based; conditions: for Growth of bacteria mixed with ASL from stimulated cultures: 10 mM denatonium, 300 μM absinthin; for Effect of solutions alone on growth: no ASL
beta-defensin 2 = assay: Beta-defensin 2 secretion by sinonasal cultures; type: cell-based, human
Kleibsiella pneumoniae = assay: Bactericidal effect of ASL from treated nasal cultures; type: cell-based; conditions: 10 mM denatonium or 300 μM absinthin
PAV-TAS2R38 = biological target: T2, PAV-TAS2R38 (Homo sapiens, UniProt P59533, A49P/I296V); assay: Fluo-4 calcium mobilization in HEK293 cells expressing hTAS2R38 (PAV) and Gα16gustducin44; type: cell-based; conditions: 1 mM agonist; PAV variant
T2 construct: first 45 amino acids of rat SSTR-3 (N); host or cells: HEK293 (peakRapid), transient transfection, pcDNA3.1(+)
T2 sequence (P59533 1-333 A49P/I296V): T1 sequence (P59533 1-333 A49P/I296V)

nasal epithelial cells = assay: Fluo-4 calcium signaling with denatonium in nasal epithelial cells (sinonasal ALI cultures); type: cell-based, human; conditions: 0.1-20 mM denatonium
AVI-TAS2R38 = biological target: T3, AVI-TAS2R38 (Homo sapiens, UniProt P59533, A262V); assay: Fluo-4 calcium mobilization in HEK293 cells expressing hTAS2R38 (AVI) and Gα16gustducin44; type: cell-based; conditions: 1 mM agonist; AVI variant
T3 construct: first 45 amino acids of rat SSTR-3 (N); host or cells: HEK293 (peakRapid), transient transfection, pcDNA3.1(+)
T3 sequence (P59533 1-333 A262V): T1 sequence (P59533 1-333 A49P/I296V) with P49A, A262V, V296I

T2R38 [7] = biological target: T1, T2R38; assay: DAF-2/Texas Red dextran ratio assay of NO secretion into ASL; type: cell-based; conditions: 1 mM PTC, PAV/PAV
Method: (§1) For measurement of NO secretion, a protocol was developed in which a solution of Texas Red Dextran (an NO-insensitive cell-impermeant dye) and DAF-2 (an NO-sensitive cell-impermeant dye) were added in a small volume (10 μl) to the apical surface of the cultures. The ratio of DAF-2/Texas Red fluorescence was recorded using wide-field epifluorescence microscopy at baseline and after incubation at 37° C. for the indicated times. This experiment was validated by addition of DETA-NONOate, an NO donor that releases 2 moles of NO per mole of parent molecule. DETA-NONOate was added on top of ALI cultures in pH 5 buffer to stimulate rapid decomposition. Imaging was performed using a Nikon 20×0.5 NA PlanFluor objective and 100 W mercury arc lamp with filters from Chroma Technologies (Rockingham, Vt.). Green filter contained a 480/40 nm band-pass [bp] excitation filter (reported as max transmission wavelength/filter width at half maximal transmission), a 505 nm dichroic mirror, and a 535/40 nm by emission filter. Red filter set contained a 560/40 nm by excitation filter, 595 dichroic mirror, and 630/60 nm by emission filter.
(§2) We also utilized a fluorescence-based assay to measure NO diffusion into the ASL. The apical surface of cultures was overlaid with a small volume (10 μl) of phosphate-buffered saline with or without 1 mM PTC containing 2 spectrally distinct cell-impermeant dyes, the NO-sensitive 4,5-diaminofluorescence diacetate (DAF-2) and the NO-insensitive Texas Red dextran ([…] MW); a ratiometric measurement was used to eliminate any artifacts due to expansion or contraction of ASL volume. The ratio of DAF-2/Texas Red fluorescence was recorded by fluorescence microscopy after 5, 30 and 60 min incubations at 37° C. […] We utilized this assay to determine if exposure to Pseudomonas and their secretions was sufficient to cause epithelial cells to produce NO with subsequent diffusion into the ASL. Log-phase cultures of PAO1 and PAO-JP2 were resuspended in PBS and placed on the ALI surface in the presence of DAF-2 and Texas Red.

T2R38 [8] = biological target: T4, T2R38 (Homo sapiens, UniProt P59533, A262V); assay: as above; type: cell-based; conditions: 1 mM PTC, AVI/AVI
T4 construct: T2R38 is expressed in human upper airway epithelium; endogenous in cells; host or cells: primary human sinonasal epithelial cells, air-liquid interface cultures from surgical patients
T4 sequence (P59533 1-333 A262V): T1 sequence (P59533 1-333 A49P/I296V) with P49A, A262V, V296I
Method: as §1, §2

T2R38 [9] = biological target: T1, T2R38; assay: NO metabolites in airway surface liquid by chemiluminescence; type: cell-based; conditions: 1 mM PTC; PAV/PAV
Method: (§3) ASL from stimulated and unstimulated cultures (20 μL total volume for each) was collected after 20 min at 37° C. and frozen at −20° C. and protected from light until analysis. NO-metabolites were evaluated by reduction of metabolites with acidified-heated vanadium to nitric oxide and detection of nitric oxide by chemiluminescence on the Sievers 280 nitric oxide analyzer. Samples were injected into a custom made purge container containing 0.05 M Vanadium chloride in 1 N HCl heated to 95° C. The reading in millivolts was compared to a standard curve generated by injecting standard solutions of nitrate. This reductive method reports on the total levels of nitrate, nitrite, N-nitroso and iron-nitrosyl adducts as well as low molecular weight and protein S-nitrosothiol adducts.
(§4) The antibacterial properties of NO help maintain the sterility of the sinonasal airways. […] NO diffusion into the ASL was quantified by measuring NO-derived byproducts in 20 μL of airway surface liquid from cultures stimulated with 1 mM PTC (or PBS alone) for 20 min using reductive chemistries coupled with chemiluminescence detection of nitric oxide (FIG. 20A). ASL levels of NO metabolites (nitrate, nitrite, N-nitroso and iron-nitrosyl adducts as well as low molecular weight and protein S-nitrosothiol adducts) were not different in unstimulated PAV/PAV and AVI/AVI cultures (0.41±0.13 pmol/μL for PAV/PAV and 0.66±0.33 for AVI/AVI; n.s. vs PAV/PAV). However, the increase observed in PTC-stimulated PAV/PAV cultures was >2-fold larger than that observed in AVI/AVI cultures (FIG. 20A). In PTC stimulated cultures, NO metabolites in the ASL over 20 minutes were 4.37 pmol/μL (PAV/PAV; P<0.001 vs unstimulated PAV/PAV) and 1.72 pmol/μL (AVI/AVI; P<0.01 vs stimulated PAV/PAV; n.s. vs unstimulated AVI/AVI).

T2R38 [10] = biological target: T4, T2R38; assay: as above; type: cell-based; conditions: 1 mM PTC; AVI/AVI
Method: as §3, §4

T2R38 [11] = assay: as above; type: cell-based, human; conditions: 1 mM PTC; 20 min
Method: as §3, §4

T2R38 [12] = biological target: T1, T2R38; assay: Fluo-4 Ca2+ imaging in primary human sinonasal ALI cultures; type: cell-based; conditions: 1 mM PTC; PAV/PAV cultures
T2R38 [13] = biological target: T4, T2R38; assay: as above; type: cell-based; conditions: 1 mM PTC; AVI/AVI cultures
T2R38 [14] = assay: as above; type: cell-based; conditions: 1 mM PTC; PAV/AVI cultures
[15] = test system: acutely dissociated sinonasal ciliated epithelial cells; assay: Ca2+ and DAF-FM responses in acutely dissociated sinonasal ciliated cells; type: cell-based, human

`COC(=O)[C@@H](N)CCCNC(=N)N[N+](=O)[O-]` [L-NAME, L-N^G-Nitroarginine methyl ester] was tested, and the “Effect on C4HSL-induced NO production in taster cultures” value (T2R38 [1]) was “represses the NO production”, the “Effect on NaSCN-activated DAF-FM fluorescence” value (T2R38 [2]) was “blocked” and the “Effect on CBF increase in response to 6.25% PAO1 supernatant” value (sinonasal ALI cultures) was “significantly inhibited”. The “Effect on HSL-stimulated CBF increase” value (sinonasal ALI cultures) was “blocked”, the “% green (viable) PAO1” value (Pseudomonas aeruginosa [3]) was 90±2% and the “Effect on quinine-stimulated NO production” value ([4]; L-NAME 20 μM) was “inhibited”.
With `CC1=C[C@H]2[C@H]3[C@H](C(C)=C4[C@H]5OC(=O)[C@@H](C)[C@@H]5CC[C@](C)(O)[C@@H]43)[C@@]13[C@@H]2[C@@](C)(O)CC[C@H]1[C@H](C)C(=O)O[C@@H]13` [absinthin] the “Growth of bacteria mixed with ASL from stimulated cultures” value (“Growth of bacteria mixed with ASL” below) (Pseudomonas aeruginosa [5]) was 0 CFUs, the “Effect of solutions alone on growth” value (Pseudomonas aeruginosa [5]) was “had no effect” and the “Growth of bacteria mixed with ASL” value [6] was 0 CFUs. For the same compound, the “Effect of solutions alone on growth” value [6] was “had no effect”, the “Beta-defensin 2 secretion” value (beta-defensin 2) was “induced” and the “Bactericidal effect of ASL from treated nasal cultures” value (Kleibsiella pneumoniae) was “significant bactericidal effects”.
In the case of `CC[N+](CC)(CC(=O)Nc1c(C)cccc1C)Cc1ccccc1` [denatonium, denatonium benzoate], the “Growth of bacteria mixed with ASL” value (Pseudomonas aeruginosa [5]) is reported as 0 CFUs, the “Effect of solutions alone on growth” value (Pseudomonas aeruginosa [5]) is reported as “had no effect” and the “Peak Fluo-4 fluorescence (ΔF/F)” value (PAV-TAS2R38) is reported as 1±2%. For the same compound, the “NO production with non-T2R38 bitter ligands” value (T2R38 [1]; thujone 5 mM, denatonium 10 mM, PAV/PAV cultures) was “did not stimulate NO production”, the “Growth of bacteria mixed with ASL” value [6] was 0 CFUs and the “Effect of solutions alone on growth” value [6] was “had no effect”. The “Fluo-4 fluorescence on stimulation with denatonium” value (nasal epithelial cells) was “increases fluo-4 fluorescence”, the “Beta-defensin 2 secretion” value (beta-defensin 2) was “induced” and the “Bactericidal effect of ASL from treated nasal cultures” value (Kleibsiella pneumoniae) was “significant bactericidal effects”. For the same compound, the “Peak Fluo-4 fluorescence (ΔF/F)” value (AVI-TAS2R38) was 3±1%.
For `NC(=S)Nc1ccccc1` [PTC, phenylthiocarbamide], the “DAF-2/Texas Red Dextran fluorescence ratio after PTC stimulation” value (T2R38 [7]; 5 min) was 0.46±0.10, the “DAF-2/Texas Red Dextran fluorescence ratio after PTC stimulation” value (T2R38 [7]; 30 min) was 1.55±0.17 and the “DAF-2/Texas Red Dextran fluorescence ratio after PTC stimulation” value (T2R38 [7]; 60 min) was 2.52±0.76. For the same compound, the “DAF-2/Texas Red Dextran fluorescence ratio after PTC stimulation” value (T2R38 [8]; 5 min) was 0.54±0.1, the “DAF-2/Texas Red Dextran fluorescence ratio after PTC stimulation” value (T2R38 [8]; 30 min) was 0.71±0.1 and the “DAF-2/Texas Red Dextran fluorescence ratio after PTC stimulation” value (T2R38 [8]; 60 min) was 0.90±0.3. The “Peak Fluo-4 fluorescence (ΔF/F)” value (PAV-TAS2R38) was 114±4%, the “NO metabolites in the ASL over 20 minutes” value (T2R38 [9]) was 4.37 pmol/µL and the “NO metabolites in the ASL over 20 minutes” value (T2R38 [10]) was 1.72 pmol/µL. The “Increase in NO metabolites, PTC-stimulated PAV/PAV relative to AVI/AVI cultures” value (T2R38 [11]) was over 2 fold, the “Fluo-4 fluorescence after 5 min PTC” value (T2R38 [12]) was 1.30±0.027 and the “Fluo-4 fluorescence after 5 min PTC” value (T2R38 [13]) was 1.06±0.02. For the same compound, the “Fluo-4 fluorescence after 5 min PTC” value (T2R38 [14]) was 1.14±0.035, the “Ca2+ responses in acutely dissociated sinonasal ciliated cells” value [15] was “occurred” and the “Peak Fluo-4 fluorescence (ΔF/F)” value (AVI-TAS2R38) was −4±1%.
`C=C[C@H]1C[N@@]2CC[C@H]1C[C@H]2[C@H](O)c1ccnc2ccc(OC)cc12` [quinine] was tested, and the “NO production (increase in DAF-FM fluorescence)” value ([4]; apical application, PAV/AVI heterozygote cells) was “stimulated a robust NO production”.
